ChEMBL document CHEMBL1201862, “PubChem BioAssay data set” (2004)
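Five compound concentrations were applied to cells in 96-well plates for 48 hours; endpoints were derived by simple linear interpolation of the resulting dose-response curve. GI50: concentration for 50% inhibition of growth.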 Activity calls are given as the source filed them. Rule as the data show it: active = GI50 up to about 1.1 µM and inactive = higher.

Columns and labels:
Test in all cases: DTP human tumour cell line panel, 48 h
786-0 = test system: 786-0
A498 = test system: A498
A549 = test system: A549
ACHN = test system: ACHN
BT-549 = test system: BT-549
CAKI-1 = test system: CAKI-1
CCRF-CEM = test system: CCRF-CEM
COLO 205 = test system: COLO 205
DU-145 = test system: DU-145
EKVX = test system: EKVX
HCC 2998 = test system: HCC 2998
HCT-116 = test system: HCT-116
HCT-15 = test system: HCT-15
HOP-62 = test system: HOP-62
HOP-92 = test system: HOP-92
HT-29 = test system: HT-29
Hs-578T = test system: Hs-578T
IGROV-1 = test system: IGROV-1
K562 = test system: K562
KM12 = test system: KM12
LOX IMVI = test system: LOX IMVI
M14 = test system: M14
MCF7 = test system: MCF7
MDA-MB-231 = test system: MDA-MB-231
MDA-MB-435 = test system: MDA-MB-435
MOLT-4 = test system: MOLT-4
NCI-H226 = test system: NCI-H226
NCI-H23 = test system: NCI-H23
NCI-H522 = test system: NCI-H522
NCI/ADR-RES = test system: NCI/ADR-RES
OVCAR-3 = test system: OVCAR-3
OVCAR-4 = test system: OVCAR-4
OVCAR-5 = test system: OVCAR-5
OVCAR-8 = test system: OVCAR-8
PC-3 = test system: PC-3
RPMI-8226 = test system: RPMI-8226
RXF 393 = test system: RXF 393
SF-268 = test system: SF-268
SF-295 = test system: SF-295
SF-539 = test system: SF-539
SK-MEL-28 = test system: SK-MEL-28
SK-MEL-2 = test system: SK-MEL-2
SK-MEL-5 = test system: SK-MEL-5
SK-OV-3 = test system: SK-OV-3
SN12C = test system: SN12C
SNB-19 = test system: SNB-19
SNB-75 = test system: SNB-75
SR = test system: SR
SW-620 = test system: SW-620
T47D = test system: T47D
TK-10 = test system: TK-10
U-251 = test system: U-251
UACC-257 = test system: UACC-257
UACC-62 = test system: UACC-62
UO-31 = test system: UO-31
HL-60 = test system: HL-60
Malme-3M = test system: Malme-3M
NCI-H460 = test system: NCI-H460
MDA-N = test system: MDA-N

Measured: GI50

C/C(C=O)=N\Nc1cc(C)c2ccccc2n1
10 µM: HCT-15
inactive: 786-0 14.2 µM | A498 15.2 µM | A549 20.6 µM | ACHN 16.3 µM | BT-549 12.8 µM | CAKI-1 16.9 µM | CCRF-CEM 12 µM | COLO 205 16.4 µM | DU-145 15.5 µM | EKVX 16.9 µM | HCC 2998 15.1 µM | HCT-116 14.5 µM | HOP-62 11.2 µM | HOP-92 15.1 µM | HT-29 16.7 µM | Hs-578T 17.3 µM | IGROV-1 16.9 µM | K562 13.4 µM | KM12 15 µM | LOX IMVI 13.2 µM | M14 15.7 µM | MCF7 12.5 µM | MDA-MB-231 15.1 µM | MDA-MB-435 16 µM | MOLT-4 16.2 µM | NCI-H226 6.52 µM | NCI-H23 12.4 µM | NCI-H522 17.1 µM | NCI/ADR-RES 15.7 µM | OVCAR-3 2.62 µM | OVCAR-4 12.8 µM | OVCAR-5 17.2 µM | OVCAR-8 17.5 µM | PC-3 13.7 µM | RPMI-8226 11.9 µM | RXF 393 17.5 µM | SF-268 16.9 µM | SF-295 15.2 µM | SF-539 11.7 µM | SK-MEL-28 16.3 µM | SK-MEL-2 15.2 µM | SK-MEL-5 15.6 µM | SK-OV-3 20.9 µM | SN12C 16.3 µM | SNB-19 19.1 µM | SNB-75 15.1 µM | SR 1.7 µM | SW-620 24.7 µM | T47D 15.8 µM | TK-10 15.5 µM | U-251 14 µM | UACC-257 17.6 µM | UACC-62 14.7 µM | UO-31 14.9 µM

COC1=CC(=O)N(C(=O)C2CSC(C(CO)NC(=O)c3csc(/C=N/O)n3)=N2)C1 (stereo not drawn)
> 100 µM: HCT-15
active: SNB-75 0.302 µM
inactive: 786-0 > 100 µM | A498 > 100 µM | ACHN > 100 µM | BT-549 > 100 µM | CAKI-1 > 100 µM | CCRF-CEM > 100 µM | COLO 205 > 100 µM | DU-145 > 100 µM | EKVX > 100 µM | HCT-116 > 100 µM | HL-60 > 100 µM | HOP-62 > 100 µM | HT-29 > 100 µM | Hs-578T 15.9 µM | IGROV-1 > 100 µM | K562 > 100 µM | KM12 > 100 µM | LOX IMVI > 100 µM | M14 > 100 µM | MCF7 > 100 µM | MDA-MB-231 > 100 µM | MDA-MB-435 > 100 µM | MOLT-4 > 100 µM | Malme-3M 64.4 µM | NCI-H226 36.6 µM | NCI-H23 > 100 µM | NCI-H460 > 100 µM | NCI/ADR-RES > 100 µM | OVCAR-3 > 100 µM | OVCAR-5 > 100 µM | OVCAR-8 > 100 µM | PC-3 > 100 µM | RPMI-8226 > 100 µM | SF-268 > 100 µM | SF-295 > 100 µM | SF-539 > 100 µM | SK-MEL-28 > 100 µM | SK-MEL-2 > 100 µM | SK-MEL-5 > 100 µM | SK-OV-3 > 100 µM | SN12C > 100 µM | SNB-19 > 100 µM | SR > 100 µM | SW-620 > 100 µM | TK-10 > 100 µM | UACC-257 > 100 µM | UACC-62 > 100 µM

O=C(O)c1cccc(SSc2cccc(C(=O)O)c2)c1
> 100 µM: HCT-15
inactive: 786-0 > 100 µM | A498 > 100 µM | A549 > 100 µM | ACHN > 100 µM | BT-549 > 100 µM | CAKI-1 > 100 µM | CCRF-CEM 28.8 µM | COLO 205 > 100 µM | DU-145 > 100 µM | EKVX > 100 µM | HCT-116 > 100 µM | HL-60 > 100 µM | HOP-62 > 100 µM | HOP-92 > 100 µM | HT-29 > 100 µM | IGROV-1 > 100 µM | K562 > 100 µM | KM12 > 100 µM | LOX IMVI > 100 µM | M14 > 100 µM | MDA-MB-231 > 100 µM | MDA-MB-435 > 100 µM | MDA-N > 100 µM | MOLT-4 > 100 µM | Malme-3M > 100 µM | NCI-H226 > 100 µM | NCI-H23 > 100 µM | NCI-H460 > 100 µM | NCI-H522 58.1 µM | NCI/ADR-RES > 100 µM | OVCAR-3 > 100 µM | OVCAR-4 > 100 µM | OVCAR-5 > 100 µM | OVCAR-8 > 100 µM | PC-3 > 100 µM | RPMI-8226 > 100 µM | RXF 393 > 100 µM | SF-268 > 100 µM | SF-295 > 100 µM | SF-539 > 100 µM | SK-MEL-28 > 100 µM | SK-MEL-2 > 100 µM | SK-MEL-5 > 100 µM | SK-OV-3 > 100 µM | SN12C > 100 µM | SNB-19 > 100 µM | SNB-75 > 100 µM | SR > 100 µM | SW-620 > 100 µM | T47D > 100 µM | TK-10 > 100 µM | U-251 > 100 µM | UACC-257 > 100 µM | UACC-62 > 100 µM | UO-31 > 100 µM

COC(=O)[C@]12CCC(C)(C)C[C@H]1[C@H]1C(=O)C=C3[C@@]4(C)C=C(C#N)C(=O)C(C)(C)[C@@H]4CC[C@@]3(C)[C@]1(C)CC2 [BARDOXOLONE METHYL]
0.0178 µM: HCT-15
active: 786-0 0.0279 µM | A498 0.046 µM | A549 0.0294 µM | ACHN 0.0285 µM | BT-549 0.0339 µM | CAKI-1 0.0273 µM | CCRF-CEM < 0.01 µM | COLO 205 0.0199 µM | DU-145 0.0239 µM | EKVX 0.0395 µM | HCC 2998 0.0112 µM | HCT-116 0.0131 µM | HL-60 < 0.0138 µM | HOP-62 0.0268 µM | HOP-92 0.0769 µM | HT-29 0.0552 µM | Hs-578T 0.0321 µM | IGROV-1 0.0405 µM | K562 0.0205 µM | KM12 0.0163 µM | LOX IMVI 0.0129 µM | M14 0.0171 µM | MCF7 < 0.0107 µM | MDA-MB-231 0.0301 µM | MDA-MB-435 0.0164 µM | MOLT-4 < 0.01 µM | Malme-3M 0.0667 µM | NCI-H226 0.0346 µM | NCI-H23 0.0156 µM | NCI-H460 0.0205 µM | NCI-H522 0.0728 µM | NCI/ADR-RES 0.0188 µM | OVCAR-3 0.0103 µM | OVCAR-4 0.162 µM | OVCAR-5 0.04 µM | OVCAR-8 0.0199 µM | PC-3 0.0165 µM | RPMI-8226 < 0.0104 µM | RXF 393 0.0247 µM | SF-268 0.0238 µM | SF-295 0.0289 µM | SF-539 0.0419 µM | SK-MEL-28 0.0759 µM | SK-MEL-2 0.027 µM | SK-MEL-5 0.0286 µM | SK-OV-3 0.126 µM | SN12C 0.0237 µM | SNB-19 0.0408 µM | SNB-75 0.139 µM | SR 0.0245 µM | SW-620 0.0219 µM | T47D 0.0288 µM | TK-10 0.0269 µM | U-251 0.0232 µM | UACC-257 0.0455 µM | UACC-62 0.0145 µM | UO-31 0.0818 µM
